In patent US8586588B2, “Aryl pyridazinone derivatives and their use as H3 receptor ligands” (Cephalon, Inc., priority 2006, dated 2013):
Where two headings read alike, the source gives them in different places.

What was measured:
human H3 receptor = target: T1, human H3 receptor (Homo sapiens, UniProt Q9Y5N1); assay: Human H3 radioligand binding ([3H]-N-alpha-methylhistamine, CHO cell membranes, SPA); details: binding constant as letter class
T1 construct: expressed in transfected cells
Method: (§1) Cell pellets were resuspended in 5 mM Tris-HCl, pH 7.5 with […] and a cocktail of protease inhibitors (Complete Protease Inhibition Tablets, Roche Diagnostics). Cells were disrupted using a polytron cell homogenizer and the suspension was centrifuged at 1000×g for 10 minutes at 4° C. The pellet was discarded and the supernatant centrifuged at 40,000×g for 30 min at 4° C. This membrane pellet was washed in membrane buffer containing 50 mM Tris-HCl, pH 7.5 with 0.6 mM EDTA, 5 mM MgCl2 and protease inhibitors, recentrifuged as above and the final pellet resuspended in membrane buffer plus 250 mM sucrose and frozen at −80° C.
(§2) Membranes were resuspended in 50 mM Tris HCl (pH 7.4), 5 mM MgCl2, 0.1% BSA. The membrane suspensions (10 μg protein per well) were incubated in a 96 well microtiter plate with [^3H]-N-alpha-methylhistamine (approximately 1 nM final concentration), test compounds at various concentrations (0.01 nM-30 μM) and scintillation proximity beads (Perkin Elmer, FlashBlueGPCR Scintillating Beads) in a final volume of 80 μl for 4 hours at room temperature, protected from light. Non-specific binding was determined in the presence of 10 μM clobenpropit. Radioligand bound to receptor, and therefore in proximity to the scintillation beads, was measured using a MicroBeta scintillation counter.

[1] = target: T2, rat histamine H3 receptor (Rattus norvegicus, UniProt Q9QYN8); assay: Rat H3 radioligand binding ([3H]-N-alpha-methylhistamine, CHO-A3 cell membranes, SPA)
T2 construct: encoding the entire 445-amino-acid rat histamine H3 receptor; expressed in transfected cells
T2 sequence (Q9QYN8 whole entry): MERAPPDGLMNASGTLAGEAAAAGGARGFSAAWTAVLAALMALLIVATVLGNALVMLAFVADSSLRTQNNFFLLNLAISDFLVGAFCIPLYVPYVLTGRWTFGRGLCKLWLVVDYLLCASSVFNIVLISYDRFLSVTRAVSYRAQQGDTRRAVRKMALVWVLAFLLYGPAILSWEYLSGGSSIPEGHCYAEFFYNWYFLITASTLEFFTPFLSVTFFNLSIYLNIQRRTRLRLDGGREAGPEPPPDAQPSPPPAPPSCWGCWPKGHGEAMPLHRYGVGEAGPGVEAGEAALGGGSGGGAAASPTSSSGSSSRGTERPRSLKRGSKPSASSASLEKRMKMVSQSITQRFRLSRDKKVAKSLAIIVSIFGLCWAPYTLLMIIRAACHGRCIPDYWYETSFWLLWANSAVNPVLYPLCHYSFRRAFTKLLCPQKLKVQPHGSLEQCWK
Method: as §1, with “This was engineered into the pIRES-neo3 mammalian expression vector, which was stably transfected into the CHO-A3 cell line (Euroscreen, Belgium), followed by clonal selection by limiting dilution. Cells were harvested and cell pellets were frozen (−80° C.). Cell pellets” for “Cell pellets”
as §2

[2] = Table B, binding constant as letter class, read-out: rat H3 Ki
[3] = Table A, binding constant as letter class, read-out: Rat H3 Ki

T1 sequence (Q9Y5N1 whole entry): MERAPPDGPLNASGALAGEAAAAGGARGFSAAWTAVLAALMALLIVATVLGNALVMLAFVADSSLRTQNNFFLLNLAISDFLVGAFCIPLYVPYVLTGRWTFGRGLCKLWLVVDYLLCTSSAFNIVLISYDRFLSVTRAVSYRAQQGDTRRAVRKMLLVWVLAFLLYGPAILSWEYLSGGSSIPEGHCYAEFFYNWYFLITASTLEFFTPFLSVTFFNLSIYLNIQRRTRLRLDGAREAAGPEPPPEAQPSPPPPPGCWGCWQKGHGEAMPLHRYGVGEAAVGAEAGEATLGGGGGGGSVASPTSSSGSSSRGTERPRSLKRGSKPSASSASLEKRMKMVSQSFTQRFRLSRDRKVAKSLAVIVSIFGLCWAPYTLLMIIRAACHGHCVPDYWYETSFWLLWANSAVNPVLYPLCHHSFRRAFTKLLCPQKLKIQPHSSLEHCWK

SMILES | Ki (human H3 receptor; Table B) | Ki [1, 2] | Ki (human H3 receptor; Table A) | Ki [1, 3] | Ki [1]
CC1CC(=O)NN=C1c1ccc(OCCCN2CCC[C@H]2C)cc1 (mixture of isomers) [Example 194, 5-Methyl-6-{4-[3-((R)-2-methyl-pyrrolidin-1-yl)-propoxy]-phenyl}-4,5-dihydro-2H-pyridazin-3-one] | 0.0001 to 0.1 µM | 0.0001 to 0.1 µM |  |  | 
CC1CC(=O)NN=C1c1ccc(OCCCN2CCCCC2)cc1 (racemic) [Example 197, 5-Methyl-6-[4-(3-piperidin-1-yl-propoxy)-phenyl]-4,5-dihydro-2H-pyridazin-3-one] | 0.0001 to 0.1 µM | 0.0001 to 0.1 µM |  |  | 
CC1CC(=O)NN=C1c1ccc(OCCCN2CCCC2)cc1 (racemic) [Example 198, 5-Methyl-6-[4-(3-pyrrolidin-1-yl-propoxy)-phenyl]-4,5-dihydro-2H-pyridazin-3-one] | 0.0001 to 0.1 µM | 0.0001 to 0.1 µM |  |  | 
C[C@@H]1CCCN1CCCOc1ccc(C2=NNC(=O)C3CC23)cc1 (mixture of isomers) [Example 243, 5-{4-[3-((R)-2-Methyl-pyrrolidin-1-yl)-propoxy]-phenyl}-3,4-diaza-bicyclo[4.1.0]hept-4-en-2-one] | 0.0001 to 0.1 µM | 0.0001 to 0.1 µM |  |  | 
CC1CC(=O)NN=C1c1ccc(OCCCN2CCC[C@H]2C)cc1 (single isomer, unassigned) [Example 195] | 0.0001 to 0.1 µM | 0.0001 to 0.1 µM |  |  | 
CC1CC(=O)NN=C1c1ccc(OCCCN2CCC[C@H]2C)cc1 (single isomer, unassigned) [Example 196] | 0.0001 to 0.1 µM | 0.0001 to 0.1 µM |  |  | 
C[C@@H]1CCCN1CCCOc1ccc(C2=NNC(=O)C3CC23)cc1 (single isomer, unassigned) [Example 246] | 0.0001 to 0.1 µM | 0.0001 to 0.1 µM |  |  | 
C[C@@H]1CCCN1CCCOc1ccc(C2=NNC(=O)C3CC23)cc1 (single isomer, unassigned) [Example 247] |  | 0.0001 to 0.1 µM |  |  | 
O=C1NN=C(c2ccc(OC3CCN(C4CCC4)CC3)cc2)C2CC12 (single isomer, unassigned) [Example 248, 5-[4-(1-Cyclobutyl-piperidin-4-yloxy)-phenyl]-3,4-diaza-bicyclo[4.1.0]hept-4-en-2-one] | 0.0001 to 0.1 µM | 0.0001 to 0.1 µM |  |  | 
O=C1NN=C(c2ccc(OC3CCN(C4CCC4)CC3)cc2)C2CC12 (single isomer, unassigned) [Example 249, 5-[4-(1-Cyclobutyl-piperidin-4-yloxy)-phenyl]-3,4-diaza-bicyclo[4.1.0]hept-4-en-2-one] | 0.0001 to 0.1 µM | 0.0001 to 0.1 µM |  |  | 
C[C@@H]1CCCN1CCCOc1ccc(-c2ccc(=O)n(C)n2)cc1 [Example 1, 2-Methyl-6-{4-[3-((R)-2-methyl-pyrrolidin-1-yl)-propoxy]-phenyl}-2H-pyridazin-3-one] |  |  | 0.0001 to 0.1 µM | 0.0001 to 0.1 µM | 
Cn1nc(-c2ccc(OCCCN3CCCCC3)cc2)ccc1=O [Example 2, 2-Methyl-6-[4-(3-piperidin-1-yl-propoxy)-phenyl]-2H-pyridazin-3-one] |  |  | 0.0001 to 0.1 µM | 0.101 to 0.5 µM | 
CC(C)n1nc(-c2ccc(OCCCN3CCCCC3)cc2)ccc1=O [Example 3, 2-Isopropy1-6-[4-(3-piperidin-1-yl-propoxy)-pheny1]-2H-pyridazin-3-one] |  |  | 0.0001 to 0.1 µM | 0.0001 to 0.1 µM | 
CC(C)N1N=C(c2ccc(OCCCN3CCCCC3)cc2)CCC1=O [Example 4, 2-Isopropy1-6-[4-(3-piperidin-1-yl-propoxy)-phenyl]-4,5-dihydro-2H-pyridazin-3-one] |  |  | 0.0001 to 0.1 µM | 0.0001 to 0.1 µM | 
CC(C)n1nc(-c2ccc(OCCCN3CCC[C@H]3C)cc2)ccc1=O [Example 5, 2-Isopropyl-6-{4-[3-((R)-2-methyl-pyrrolidin-1-yl)-propoxy]-phenyl}-2H-pyridazin-3-one] |  |  | 0.0001 to 0.1 µM | 0.0001 to 0.1 µM | 
CCn1nc(-c2ccc(OCCCN3CCC[C@H]3C)cc2)ccc1=O [Example 6, 2-Ethyl-6-{4-[3-((R)-2-methyl-pyrrolidin-1-yl)-propoxy]-phenyl}-2H-pyridazin-3-one] |  |  | 0.0001 to 0.1 µM | 0.0001 to 0.1 µM | 
C[C@@H]1CCCN1CCCOc1ccc(-c2ccc(=O)n(C)n2)cc1F [Example 7, 6-{3-Fluoro-4-[3-((R)-2-methyl-pyrrolidin-1-yl)-propoxy]-phenyl}-2-methyl-2H-pyridazin-3-one] |  |  | 0.0001 to 0.1 µM | 0.0001 to 0.1 µM | 

SMILES | Ki (human H3 receptor; Table B) | Ki [1, 2] | Ki (human H3 receptor; Table A) | Ki [1, 3] | Ki [1]
C[C@@H]1CCCN1CCCOc1ccc(C2=NN(Cc3ccc(Cl)cc3Cl)C(=O)CC2)cc1 [Example 8, 2-(2,4-Dichloro-benzyl)-6-{4-[3-((R)-2-methyl-pyrrolidin-1-yl)-propoxy]-phenyl}-4,5-dihydro-2H-pyridazin-3-one] |  |  | 0.0001 to 0.1 µM | 0.0001 to 0.1 µM | 
C[C@@H]1CCCN1CCCOc1ccc(-c2ccc(=O)n(-c3cc(Cl)cc(Cl)c3)n2)cc1 [Example 9, 2-(3,5-Dichloro-phenyl)-6-{4-[3-((R)-2-methyl-pyrrolidin-1-yl)-propoxy]-phenyl}-2H-pyridazin-3-one] |  |  | 0.0001 to 0.1 µM | 0.0001 to 0.1 µM | 
O=c1ccc(-c2ccc(OCCCN3CCCCC3)c(F)c2)nn1-c1ccccc1 [Example 10, 6-[3-Fluoro-4-(3-piperidin-1-yl-propoxy)-phenyl]-2-phenyl-2H-pyridazin-3-one] |  |  | 0.0001 to 0.1 µM | 0.101 to 0.5 µM | 
C[C@@H]1CCCN1CCCOc1ccc(-c2ccc(=O)[nH]n2)cc1 [Example 11, 6-{4-[3-((R)-2-Methyl-pyrrolidin-1-yl)-propoxy]-phenyl}-2H-pyridazin-3-one] |  |  | 0.0001 to 0.1 µM | 0.0001 to 0.1 µM | 
C[C@@H]1CCCN1CCCOc1ccc(-c2n[nH]c(=O)c3c2CCC3)cc1 [Example 12, 4-{4-[3-((R)-2-Methyl-pyrrolidin-1-yl)-propoxy]-phenyl}-2,5,6,7-tetrahydro-cyclopenta[d]pyridazin-1-one] |  |  | 0.0001 to 0.1 µM | 0.0001 to 0.1 µM | 
C[C@H](COc1ccc(-c2ccc(=O)n(C)n2)cc1)CN1CCC[C@H]1C [Example 13, 2-Methyl-6-{4-[(S)-2-methyl-3-((R)-2-methyl-pyrrolidin-1-yl)-propoxy]-phenyl}-2H-pyridazin-3-one] |  |  | 0.0001 to 0.1 µM | 0.0001 to 0.1 µM | 
Cn1nc(-c2ccc(OCCCN3CCC[C@H]3CO)cc2)ccc1=O [Example 14, 6-{4-[3-((S)-2-Hydroxymethyl-pyrrolidin-1-yl)-propoxy]-phenyl}-2-methyl-2H-pyridazin-3-one] |  |  |  |  | 0.0001 to 0.1 µM
Cn1nc(-c2ccc(OCCCN3CCC[C@@H]3CO)cc2)ccc1=O [Example 15, 6-{4-[3-((R)-2-Hydroxymethyl-pyrrolidin-1-yl)-propoxy]-phenyl}-2-methyl-2H-pyridazin-3-one] |  |  |  |  | 0.501 to 1 µM
C[C@@H]1CCCN1CCCOc1ccc(C2=NN(C)C(=O)CC2)cc1 [Example 16, 2-Methyl-6-{4-[3-((R)-2-methyl-pyrrolidin-1-yl)-propoxy]-phenyl}-4,5-dihydro-2H-pyridazin-3-one] |  |  | 0.0001 to 0.1 µM | 0.0001 to 0.1 µM | 
C[C@@H]1CCCN1CCCOc1ccc(C2=NN(Cc3ccccc3)C(=O)CC2)cc1 [Example 17, 2-Benzyl-6-{4-[3-((R)-2-methyl-pyrrolidin-1-yl)-propoxy]-phenyl}-4,5-dihydro-2H-pyridazin-3-one] |  |  | 0.0001 to 0.1 µM | 0.0001 to 0.1 µM | 
C[C@@H]1CCCN1CCCOc1ccc(-c2ccc(=O)n(Cc3ccccc3)n2)cc1 [Example 18, 2-Benzyl-6-{4-[3-((R)-2-methyl-pyrrolidin-1-yl)-propoxy]-phenyl}-2H-pyridazin-3-one] |  |  | 0.0001 to 0.1 µM | 0.0001 to 0.1 µM | 
C[C@@H]1CCCN1CCCOc1ccc(C2=NN(c3ccccc3)C(=O)CC2)cc1 [Example 19] |  |  | 0.0001 to 0.1 µM | 0.0001 to 0.1 µM | 
C[C@@H]1CCCN1CCCOc1ccc(-c2ccc(=O)n(-c3ccccc3)n2)cc1 [Example 20, 6-{4-[3-((R)-2-Methyl-pyrrolidin-1-yl)-propoxy]-phenyl}-2-phenyl-2H-pyridazin-3-one] |  |  | 0.0001 to 0.1 µM | 0.0001 to 0.1 µM | 
C[C@@H]1CCCN1CCCOc1ccc(-c2n[nH]c(=O)cc2-c2ccccn2)cc1 [Example 112, 6-{4-[3-((R)-2-Methyl-pyrrolidin-1-yl)-propoxy]-phenyl}-5-pyridin-2-yl-2H-pyridazin-3-one] | 0.0001 to 0.1 µM |  |  |  | 
C[C@@H]1CC(=O)NN=C1c1ccc(OC2CCN(C3CCC3)CC2)cc1 [Example 190, (R)-6-[4-(1-Cyclobutyl-piperidin-4-yloxy)-phenyl]-5-methyl-4,5-dihydro-2H-pyridazin-3-one] |  |  |  |  | 0.0001 to 0.1 µM
C[C@H]1CC(=O)NN=C1c1ccc(OC2CCN(C3CCC3)CC2)cc1 [Example 191, (S)-6-[4-(1-Cyclobutyl-piperidin-4-yloxy)-phenyl]-5-methyl-4,5-dihydro-2H-pyridazin-3-one] |  |  |  |  | 0.0001 to 0.1 µM
